Assay results taken from patent US20100022584A1, “Modulation of Glutamine Synthetase Activity” (priority 2006, published 2010).
Positions count from the first letter of the chain named.

Tests used:
Assay in all cases: HPLC forward-reaction glutamine synthetase assay with serine protease inhibitors
Format in all cases: biochemical, E. coli
[1] = molecular target: T1, glutamine synthetase mutant S52A (Escherichia coli, UniProt P0A9C5, S53A); settings: 1 mM inhibitor; for inhibition of the enzyme (in words): HPLC assays; for % Reduction in ADP-based Specific Activity / % Reduction in Glutamine-based Specific Activity: 60 min pre-incubation, vs no-inhibitor control, positive = activity increased; for % Conversion: glutamine-based divided by ADP-based specific activity
T1 construct: made in house; host or cells: E. coli YMC11 (glutamine synthetase auxotroph), pBluescript II SK+
T1 sequence (P0A9C5 2-469 S53A limits assumed): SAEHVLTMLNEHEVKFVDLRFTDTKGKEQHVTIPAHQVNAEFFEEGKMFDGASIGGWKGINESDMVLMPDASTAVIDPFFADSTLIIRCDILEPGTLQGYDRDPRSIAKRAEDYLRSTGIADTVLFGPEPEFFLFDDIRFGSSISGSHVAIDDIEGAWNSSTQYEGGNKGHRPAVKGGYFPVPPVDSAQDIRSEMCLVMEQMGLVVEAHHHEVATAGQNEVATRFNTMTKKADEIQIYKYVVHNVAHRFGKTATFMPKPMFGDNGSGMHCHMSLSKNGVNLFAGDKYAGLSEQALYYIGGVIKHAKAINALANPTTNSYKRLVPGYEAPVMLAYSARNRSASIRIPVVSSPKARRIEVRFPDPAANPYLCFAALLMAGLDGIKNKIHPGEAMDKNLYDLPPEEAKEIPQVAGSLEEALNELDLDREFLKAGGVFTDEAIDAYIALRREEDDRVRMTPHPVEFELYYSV
Method: (§1) This assay was set up to measure glutamine synthetase activity according to the forward reaction, and measures the amount of glutamine formed from […] of L-glutamate in the presence of MnCO3-ATP (the basis of one reaction) and MgATP (the basis of a second reaction). In addition, the amount of ADP formed is also measured in a separate assay, using the same reagents.
(§2) All enzyme preparations were adjusted to the same concentration of protein, and added to the assay mixture in a volume of 50 μl. The addition of the enzyme started the reaction, which was then allowed to proceed for 1 hour. The reaction was stopped by the addition of 6 μl of a 50% solution of trichloroacetic acid. Each assay was then aliquoted into 4 HPLC vials (150 μl per vial), two of which were assayed for glutamate and glutamine using a Phenomenex Luna 5 μC18 Column on an Agilent 100 HPLC instrument. The ATP/ADP assays were run on a Chromolith Performance RP-18c column also using an Agilent 100 HPLC instrument.
(§3) As it is believed that two putative catalytic triads, similar to those in the serine proteases, are involved in the reaction mechanism of glutamine synthetase, certain of the mutants were also assayed by HPLC in the presence of the serine protease inhibitors, AEBSF and PMSF, in order to assess the effect that these inhibitors had on the enzyme. The enzymes assessed were the adenylylated WT enzyme, the deadenylylated WT enzyme, and the mutant enzymes S52A, S52A Y397V, S53A, S53A Y397V, S52A S53A and S52A S53A Y397V. The enzymes were pre-incubated for 60 minutes in the presence of 1 mM PMSF or 1 mM AEBSF. A control reaction was set up for each enzyme, which contained no inhibitor. Each enzyme was then added to assays set up as described above. The assay was allowed to proceed for 60 minutes, then stopped by the addition of […] of 50% TCA, after which they were analysed by HPLC. All assays were run in triplicate.
(§4) In addition to the γ-glutamyl transferase assays, assays were also developed to measure the rate of conversion of ATP and glutamate to ADP and glutamine by HPLC. These were set up as single assays but analysed separately for glutamate and glutamine and ATP and ADP. The conversion rates for glutamate to glutamine, in both the presence of Mn^2+ and Mg^2+ by glutamine synthetase, is referred to as the […] specific activity and is presented in μmoles/min/mg protein. The conversion rates for ATP to ADP, in both the presence of Mn^2+ and Mg^2+ by glutamine synthetase, is referred to as the ADP-based specific activity and is presented in μmoles/min/mg protein. The percentage of conversion was also calculated by dividing the glutamine-based specific activity by the ADP-based specific activity, and this value is interpreted as the ability of the enzyme to complete both steps of the reaction, i.e., glutamate to glutamine and ATP to ADP, at an equivalent level of efficiency.

[2] = molecular target: T2, glutamine synthetase mutant S53A Y397V (Escherichia coli, UniProt P0A9C5, S54A/Y398V); settings: 1 mM inhibitor; for % Reduction in ADP-based Specific Activity / % Reduction in Glutamine-based Specific Activity: 60 min pre-incubation, vs no-inhibitor control, positive = activity increased; for % Conversion: glutamine-based divided by ADP-based specific activity
T2 construct: made in house; host or cells: E. coli YMC11 (glutamine synthetase auxotroph), pBluescript II SK+
T2 sequence (P0A9C5 2-469 S54A/Y398V limits assumed): T1 sequence (P0A9C5 2-469 S53A limits assumed) with A52S, S53A, Y397V
Method: as §1, §2, §3, §4

[3] = molecular target: T3, glutamine synthetase mutant S53A (Escherichia coli, UniProt P0A9C5, S54A); settings: 1 mM inhibitor; for inhibition of the enzyme (in words): HPLC assays; for % Reduction in ADP-based Specific Activity / % Reduction in Glutamine-based Specific Activity: 60 min pre-incubation, vs no-inhibitor control, positive = activity increased; for % Conversion: glutamine-based divided by ADP-based specific activity
T3 construct: made in house; host or cells: E. coli YMC11 (glutamine synthetase auxotroph), pBluescript II SK+
T3 sequence (P0A9C5 2-469 S54A limits assumed): T1 sequence (P0A9C5 2-469 S53A limits assumed) with A52S, S53A
Method: as §1, §2, §3, §4

| SMILES | inhibition of the enzyme (in words) [1] | % Reduction in ADP-based Specific Activity ([1]; Mg assay) [%] | % Reduction in Glutamine-based Specific Activity ([1]; Mg assay) [%] | % Conversion ([1]; Mg assay) [%] | % Reduction in ADP-based Specific Activity ([1]; Mn assay) | % Reduction in Glutamine-based Specific Activity ([1]; Mn assay) | % Conversion ([1]; Mn assay) [%] | inhibition of the enzyme (in words) ([2]; HPLC assays) | % Reduction in ADP-based Specific Activity ([2]; Mg assay) [%] | % Reduction in Glutamine-based Specific Activity ([2]; Mg assay) [%] | % Reduction in ADP-based Specific Activity ([2]; Mn assay) | % Reduction in Glutamine-based Specific Activity ([2]; Mn assay) | % Conversion ([2]; Mn assay) [%] | inhibition of the enzyme (in words) [3] | % Reduction in ADP-based Specific Activity ([3]; Mg assay) [%] | % Reduction in Glutamine-based Specific Activity ([3]; Mg assay) | % Conversion ([3]; Mg assay) [%] | % Reduction in ADP-based Specific Activity ([3]; Mn assay) | % Reduction in Glutamine-based Specific Activity ([3]; Mn assay) [%] | % Conversion ([3]; Mn assay) [%] |
| --- | --- | --- | --- | --- | --- | --- | --- | --- | --- | --- | --- | --- | --- | --- | --- | --- | --- | --- | --- | --- |
| NCCc1ccc(S(=O)(=O)F)cc1 [AEBSF] | appeared to cause inhibition | −31.77 | −10.61 | 109 | +30.66% | +15.27% | 81 | appeared to cause inhibition | −100.00 | −55.60 | +14.80% | +5.16% | 75 | appeared to cause inhibition | −39.50 | −1.70% | 83 | −15.43% | −15.19 | 115 |
| O=S(=O)(F)Cc1ccccc1 [PMSF] | found to inhibit | −19.51 | −43.54 | 59 | −13.41% | −39.84% | 64 |  |  |  | +39.67% | +6.07% | 63 | found to inhibit | −17.31 | +6.90% | 66 | +46.95% | −22.73 | 61 |
